{"source": "paper doi:10.1101/695973v1", "about": "(biorxiv, 2019)", "key": {"β-lactamase Mm3 [1]": {"test_system": "β-lactamase Mm3", "settings": "20 mM sodium phosphate, 0.2 M NaCl, pH 7.4, 30°C; Hill equation, nH 2.36"}, "β-lactamase Mm3 [2]": {"test_system": "β-lactamase Mm3", "experiment": "spectrophotometric hydrolysis at […] nm, initial rates, Michaelis-Menten fit", "format": "biochemical, uncultured bacterium", "settings": "20 mM sodium phosphate, 0.2 M NaCl, pH 7.4, 30°C"}}, "note": "Read-outs that look alike come from different tables or passages of the source."}
{"smiles": "CC1(C)S[C@@H]2[C@H](NC(=O)[C@H](N)c3ccccc3)C(=O)N2[C@H]1C(=O)O", "note": "[ampicillin]", "values": [{"measurement": "Km", "setting": "β-lactamase Mm3 [1]", "result": "271 ± 16.4", "unit": "µM"}]}
{"smiles": "CC1(C)S[C@@H]2[C@H](NC(=O)C(C(=O)O)c3ccccc3)C(=O)N2[C@H]1C(=O)O", "note": "(some centres unmarked) [carbenicillin]", "values": [{"measurement": "Km", "setting": "β-lactamase Mm3 [2]", "result": "400 ± 42.7", "unit": "µM"}]}
